Laboratory results from patent US6452037B1, “Multioligonanilinated fullerenes” (priority 2001, dated 2002).

Experiments:
[1] = Water solubility noted for the isolated product; type: physicochemical
Procedure: 200 mg F12A16 and 15.0 mL DMF were added to a dry flask containing a stirring bar and a condenser under N2. To the DMF solution were either sequentially added 1.0 mL DBU, 0.5 mL 1,4-butane sultone, and stirred at 100° C. for 12.0 hours or sequentially added 70 mg sodium hydride −30° C., stirred for 30 minutes, added 0.5 mL 1,4-butane sultone, and stirred at 60° C. for 6.0 hours. It was then quenched with 100 mL dilute HCl-acetone solution to effect precipitation of a solid. The solid was collected after centrifugation, washed twice with acetonitrile, and dissolved in 15 mL DMSO-H2O (1:5) in the presence of 100 mg Na2CO3. The DMSO-H2O solution was slowly added to acetone, resulting in precipitation of the product F12A16S. The product, in blue, was collected after centrifugation, washed with DMF and acetone, and then dried under vacuum at 40° C. to yield 210-230 mg water-soluble F12A16S.
80 mg F10A4 in 20 mL DMSO, and 60 mg sodium hydride were added into a dry flask equipped with a stirring bar and a condenser at ambient temperature under N2. The solution thus obtained was stirred for 30 minutes, followed by addition of 0.2 mL 1,4-butane sultone. The reaction mixture was slowly heated to 70° C. and stirred for 12.0 hours, and was quenched with 100 mL dilute HCl-acetonitrile solution to effect precipitation. […]

ferricytochrome C = test: In vitro irradiation-induced superoxide generation (ferricytochrome C reduction, absorbance at 550 nm); details: 25 μM F10A4S, fluorescence light 27 watts, irradiation time 0, 30, 60, 90 minutes
Procedure: The solution thus obtained was added to each well of a 24-well plate, and exposed to fluorescence light source (27 watts) for 0-90 min. The distance between the plate cover and the light source was set at 5-6 cm. The extent of reduction of ferricytochrome C to ferrocytochrome C was evaluated by optical measurement. The increase of the absorbance at 550 nm corresponded to the increase of the quantity of ferrocytochrome C.
In a separate experiment, the presence of superoxide radicals in the solution was confirmed by selective removal of superoxide radicals with superoxide dismutase (SOD, 75 or 150 units).

[2] = tested on: Fibrosarcoma cells (CCRC 60037); test: In vitro irradiation-induced cytotoxicity, MTT cell viability, fibrosarcoma cells; type: cell-based; details: fluorescence light irradiation time 60 minutes
Procedure: (§1) Two types of tumor cells were used in this study, and prepared as follows: Fibrosarcoma cells (CCRC 60037) and sarcoma 180 cells (obtained form Biochemical Institute of Chung Shan Medical and Dental College, Taiwan) were maintained and cultured in an α-modified eagle medium (MEM) containing L-glutamine and phenol red. It was supplemented with 10% fetal bovine serum and antibiotics (100 units/mL of penicillin G and 100 μg/mL streptomycin sulfate). The cells were incubated in the dark in 95% humidified air plus 5% CO2, and harvested by treatment with trypsin-EDTA. The harvested cells were suspended in an α-MEM medium at the concentration of 1×10^4 cells per mL.
The cell suspension thus obtained was placed into wells of a 24-well plate (500 μL each) and pre-incubated at 37° C. for 24 hours. F10A16S solutions at various concentrations (0-10 μM) were then added to the wells (500 μL each). The wells were irradiated with fluorescence light (27 watts) for 0-60 minutes. The distance between the plate cover and the light source was set at 5-6 cm. After irradiation, the cells were further incubated for 48 hours. […] The absorbance at 540 nm was correlated with the quantity of formazon, and thus with the quantity of dehydrogenase enzyme or the relative number of living cells (i.e., viability). […]

[3] = tested on: Fibrosarcoma cells (CCRC 60037) and sarcoma 180 cells; test: In vitro irradiation-induced cytotoxicity, MTT cell viability, tumor cells (cell type not specified for the result); type: cell-based
Procedure: as §1
The cell suspension thus obtained was placed into wells of a 24-well plate (500 μL each) and pre-incubated at 37° C. for 24 hours. F10A16S solutions at various concentrations (0-10 μM) were then added to the wells (500 μL each). The wells were irradiated with fluorescence light (27 watts) for 0-60 minutes. The distance between the plate cover and the light source was set at 5-6 cm. After irradiation, the cells were further incubated for 48 hours. A solution of 3-(4,5-dimethylthiazol-2-yl)-2,5-diphenyl-tetrazolium bromide (MTT, 100 μL, 0.5% in PBS, 100 μL each) was then added to each of the wells to react with mitochrondrial dehydrogenase in the living cells to produce formazon. Each cell suspension was again incubated at 37° C. for 3 hours. The suspension medium was then discarded. Formazon formed in cells from each well was then extracted with DMSO (1.0 mL each). The DMSO extract solution was immediately used for optical measurement. The absorbance at 540 nm was correlated with the quantity of formazon, and thus with the quantity of dehydrogenase enzyme or the relative number of living cells (i.e., viability). […] With an irradiation time of 60 minutes, a sharp loss of viable cells was observed when F10A16S concentration was increased from 2.5 to 5.0 μM. A maximal photodynamic cytotoxicity efficacy of >90% was obtained at an F10A16S concentration of 5.0-10.0 μM and an irradiaion time of 60 minutes.

[4] = tested on: Murine sarcoma 180 cells subcutaneous tumors; test: In vivo photodynamic therapy study in tumor-bearing mice; parameters: species or system male ICR mice; details: 10 mg/kg intraperitoneal, 100 J/cm^2, day 30
Procedure: A photodynamic therapy study was conducted in male ICR mice (Charles River Japan origin Crl: CD-1® (ICR)BR). The mice were 8 weeks old, weighted 37±0.8 g, housed in polycarbonated shoe-box cages on hardwood bedding (5 mice/cage) under controlled conditions (temperature 22±1° C., relative humidity 55±15%, and light/dark cycle 12/12 hours), and allowed free access to a laboratory rodent diet (#5K55, Purina Mills, Inc., St. Louis, Mo.) and water.
Murine sarcoma 180 cells were maintained by transplantation to other mice in the abdominal cavity biweekly. Subcutaneous tumors were induced by […] injection of 1×10^7 tumor cells (about 0.1-0.15 ml ascitic fluid) to the subcutaneous region of abdominal cavities of the mice for this study, and were allowed to proliferate at the inoculation sites for 5-7 days until they reached a size with a diameter of 10±2 mm. […]
After the treatment, the mouse was examined every 5 days for 30 days. Efficacy of the irradiation therapy was evaluated by measuring the body weights and tumor volumes of the mouse. At day 30, the mice were euthanatized by carbon dioxide asphyxiation, and the weights of the body, liver, kidney, spleen, heart, and tumor, were measured. […]

sulfobutylated fullerene dodeca(hexadecaanilino)adduct [F12A16S]
solubility in water [1]: water-soluble

sulfobutylated deca(tetraanilino)-pentakis(methano)-[60]fullerene decacarbamide [F10A4S]
production of superoxide radicals upon irradiation (ferricytochrome C): increase systematically in a time-dependent manner
solubility in water [1]: water-soluble

deca(hexadecaanilino)adduct [F10A16S]
IC50 [2]: 2.9 µM
cell viability with irradiation ([3]; 0-10 μM, irradiation 0-60 minutes): decrease in cell viability in both dose-dependent and irradiation time-dependent manners
maximal photodynamic cytotoxicity efficacy ([3]; 5.0-10.0 μM, irradiation time 60 minutes): > 90%
cytotoxicity in the absence of light irradiation ([3]; no irradiation, highest concentration 10 μM): no cystoxicity was observed
tumor weight less than that of the tumor control group ([4]; laser irradiation at 514 nm): roughly 60%
tumor weight less than that of the tumor control group ([4]; laser irradiation at 633 nm): ~99%
